Values of other authors in patent publication US12084601B2, “Packaging patches having disinfecting sealing layer” (AMCOR FLEXIBLES NORTH AMERICA, INC., priority 2017, dated 2024).

[O][Cl+][O-] [chlorine dioxide]
Half-life of chlorine dioxide degradation (first order kinetics) (ambient room light and temperature, depending on initial ClO2 concentration): 2 to 3 h
Time for chlorine dioxide concentration in the package to reach levels sufficiently low for safe opening (spontaneous degradation, prior packages): 12 to 48 h
